pKd: −log10 of the molar value.
Molecular target: FimH-CRD (Escherichia coli, UniProt P08191)
Assay: Competitive binding assay (fluorescence polarization, Alexa647 mannoside probe)
Experimental: The following competitive binding assay is performed: Round bottom, low volume 384-well microtiter plates are filled with 20 μl/well of a binding solution of FimH-CRD in 50 mM Tris, pH 7.0, 100 mM NaCl, 1 mM EDTA, 5 mM beta mercaptoethanol, 0.05% BSA, 5 nM of the Alexa647 mannoside probe and 60 nM of the FimH-CRD. Control wells using the same conditions but no FimH-CRD added are also prepared (protein-free). Compounds are serially diluted (12-point dose) in DMSO from 75 μM down to 0.4 nM. Compounds or DMSO are then added to each well (0.5 μl) to reach the final concentration of each drug (2.5% final DMSO concentration), in duplicate. Plates are then incubated for a minimum of five hours at room temperature in the dark. Plates are then read using the SpectaMax Paradigm Multi-Mode plate reader and the appropriate fluorescent polarization Detection cartridge (Alexa-647).
Alexa 647 mannoside probe is prepared using the similar procedure reported for FAM mannoside (Han, Z. et. al., 2010, J. Med. Chem., 53, 4779) and is described in the scheme below.
To a blue colored stirred solution of (2S,3S,4S,5S,6R)-2-(4-aminobutoxy)-6-(hydroxymethyl)tetrahydropyran-3,4,5-triol (2.21 mg, 0.009 mmol) and the (2E)-2-[(2E,4E)-5-[3,3-dimethyl-5-sulfonato-1-(3-sulfonatopropyl)indol-1-ium-2-yl]penta-2,4-dienylidene]-3-[6-(2,5-dioxopyrrolidin-1-yl)oxy-6-oxo-hexyl]-3-methyl-1-(3-sulfonatopropyl)indoline-5-sulfonate (Potassium Ion (3)) (4.9 mg, 0.0044 mmol) in DMF (44 μL) is added Et3N (5.4 mg, 7.0 μL, 0.053 mmol) at rt. The solution is stirred at room temperature over night, concentrated, dissolved in water and purified on 12 g C-18 silica gel cartridge on Isolera system using acetonitrile in water (0 to 40%, 10 CV) and followed by lyophilization to afford Alexa 647 mannoside probe (3.3 mg, 34%) as deep blue solid.
The Kd values of the compounds tested in duplicates are calculated with prism software (GraphPad Software, Inc, La Jolla, USA) with Alexa-647 probe and FimH-CRD.

Sequence of FimH-CRD (P08191 22-177): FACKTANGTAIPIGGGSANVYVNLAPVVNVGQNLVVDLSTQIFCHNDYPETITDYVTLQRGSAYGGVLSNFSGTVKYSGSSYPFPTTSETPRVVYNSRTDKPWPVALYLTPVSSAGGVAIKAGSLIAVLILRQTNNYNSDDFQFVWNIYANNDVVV

CO[C@H]1O[C@H](CO)[C@@H](O)[C@H](C(O)[C@H]2O[C@H](CO)[C@@H](O)[C@H](O)[C@@H]2O)[C@@H]1O (stereo partly drawn) [Compound 2, (2R,3S,4S,5S,6R)-2-[[(2R,3S,4R,5S,6S)-3,5-Dihydroxy-2-(hydroxymethyl)-6-methoxy-tetrahydropyran-4-yl]-hydroxy-methyl]-6-(hydroxymethyl)tetrahydropyran-3,4,5-triol]
pKd: 6.91

Cc1nnc(-c2ccc(-c3ccc(O[C@H]4O[C@H](CO)[C@@H](O)[C@H](C[C@H]5O[C@H](CO)[C@@H](O)[C@H](O)[C@@H]5O)[C@@H]4O)cc3)cc2)o1 [Compound 7, (2R,3S,4R,5S,6R)-2-[[(2R,3S,4S,5S,6R)-3,5-Dihydroxy-2-(hydroxymethyl)-6-[4-[4-(5-methyl-1,3,4-oxadiazol-2-yl)phenyl]phenoxy]tetrahydropyran-4-yl]methyl]-6-(hydroxymethyl)tetrahydropyran-3,4,5-triol]
pKd: 7.03

OC[C@H]1O[C@H](C[C@@H]2[C@H](O)[C@@H](Oc3cccc(O)c3)O[C@H](CO)[C@H]2O)[C@@H](O)[C@@H](O)[C@@H]1O [Compound 6, (2R,3S,4R,5S,6R)-2-[[(2R,3S,4S,5S,6R)-3,5-Dihydroxy-2-(hydroxymethyl)-6-(3-hydroxyphenoxy)tetrahydropyran-4-yl]methyl]-6-(hydroxymethyl)tetrahydropyran-3,4,5-triol]
pKd: 6.52

CNC(=O)Cc1cccc(-c2ccc(O[C@H]3O[C@H](CO)[C@@H](O)[C@H](C[C@H]4O[C@H](CO)[C@@H](O)[C@H](O)[C@@H]4O)[C@@H]3O)cc2)c1 [Compound 9, 2-[3-[4-[(2R,3S,4S,5S,6R)-3,5-Dihydroxy-6-(hydroxymethyl)-4-[[(2R,3S,4R,5S,6R)-3,4,5-trihydroxy-6-(hydroxymethyl)tetrahydropyran-2-yl]methyl]tetrahydropyran-2-yl]oxyphenyl]phenyl]-N-methyl-acetamide]
pKd: 7.10

CNC(=O)c1cccc(-c2ccc(O[C@H]3O[C@H](CO)[C@@H](O)[C@H](C[C@H]4O[C@H](CO)[C@@H](O)[C@H](O)[C@@H]4O)[C@@H]3O)cc2)c1 [Compound 3, 3-[4-[(2R,3S,4S,5S,6R)-3,5-Dihydroxy-6-(hydroxymethyl)-4-[[(2R,3S,4R,5S,6R)-3,4,5-trihydroxy-6-(hydroxymethyl)tetrahydropyran-2-yl]methyl]tetrahydropyran-2-yl]oxyphenyl]-N-methyl-benzamide]
pKd: 7.18

CNC(=O)c1cccc(-c2ccc(O[C@H]3O[C@H](CO)[C@@H](O)[C@H](C(O)[C@H]4O[C@H](CO)[C@@H](O)[C@H](O)[C@@H]4O)[C@@H]3O)cc2)c1 (stereo partly drawn) [Compound 1, 3-[4-[(2R,3S,4R,5S,6R)-3,5-Dihydroxy-6-(hydroxymethyl)-4-[hydroxy-[(2R,3S,4S,5S,6R)-3,4,5-trihydroxy-6-(hydroxymethyl)tetrahydropyran-2-yl]methyl]tetrahydropyran-2-yl]oxyphenyl]-N-methyl-benzamide]
pKd: 7.54

CNC(=O)c1cc(C(=O)NC)cc(-c2ccc(O[C@H]3O[C@H](CO)[C@@H](O)[C@H](C[C@H]4O[C@H](CO)[C@@H](O)[C@H](O)[C@@H]4O)[C@@H]3O)cc2)c1 [Compound 8, 5-[4-[(2R,3S,4S,5S,6R)-3,5-Dihydroxy-6-(hydroxymethyl)-4-[[(2R,3S,4R,5S,6R)-3,4,5-trihydroxy-6-(hydroxymethyl)tetrahydropyran-2-yl]methyl]tetrahydropyran-2-yl]oxyphenyl]-N1,N3-dimethyl-benzene-1,3-dicarboxamide]
pKd: 7.19

CNC(=O)c1cccc(O[C@H]2O[C@H](CO)[C@@H](O)[C@H](C[C@H]3O[C@H](CO)[C@@H](O)[C@H](O)[C@@H]3O)[C@@H]2O)c1 [Compound 5, 3-[(2R,3S,4S,5S,6R)-3,5-Dihydroxy-6-(hydroxymethyl)-4-[[(2R,3S,4R,5S,6R)-3,4,5-trihydroxy-6-(hydroxymethyl)tetrahydropyran-2-yl]methyl]tetrahydropyran-2-yl]oxy-N-methyl-benzamide]
pKd: 7.14

CNC(=O)c1cc(C(=O)NC)cc(-c2cccc(O[C@H]3O[C@H](CO)[C@@H](O)[C@H](C[C@H]4O[C@H](CO)[C@@H](O)[C@H](O)[C@@H]4O)[C@@H]3O)c2)c1 [Compound 13, 5-[3-[(2R,3S,4S,5S,6R)-3,5-Dihydroxy-6-(hydroxymethyl)-4-[[(2R,3S,4R,5S,6R)-3,4,5-trihydroxy-6-(hydroxymethyl)tetrahydropyran-2-yl]methyl]tetrahydropyran-2-yl]oxyphenyl]-N1,N3-dimethyl-benzene-1,3-dicarboxamide]
pKd: 7.32

CNC(=O)c1cccc(-c2ccc(O[C@H]3O[C@H](CO)[C@@H](O)[C@H](C[C@H]4O[C@H](CO)[C@@H](O)[C@H](O)[C@@H]4O)[C@@H]3O)c(C)c2)c1 [Compound 4, 3-[4-[(2R,3S,4S,5S,6R)-3,5-Dihydroxy-6-(hydroxymethyl)-4-[[(2R,3S,4R,5S,6R)-3,4,5-trihydroxy-6-(hydroxymethyl)tetrahydropyran-2-yl]methyl]tetrahydropyran-2-yl]oxy-3-methyl-phenyl]-N-methyl-benzamide]
pKd: 7.29

O=C1NCC(c2ccc(O[C@H]3O[C@H](CO)[C@@H](O)[C@H](C[C@H]4O[C@H](CO)[C@@H](O)[C@H](O)[C@@H]4O)[C@@H]3O)cc2)=C(O)N1 [Compound 12, 5-[4-[(2R,3S,4S,5S,6R)-3,5-Dihydroxy-6-(hydroxymethyl)-4-[[(2R,3S,4R,5S,6R)-3,4,5-trihydroxy-6-(hydroxymethyl)tetrahydropyran-2-yl]methyl]tetrahydropyran-2-yl]oxyphenyl]-6-hydroxy-3,4-dihydro-1H-pyrimidin-2-one]
pKd: 6.95

CNC(=O)c1ccc(-c2ccc(C)c(O[C@H]3O[C@H](CO)[C@@H](O)[C@H](C[C@H]4O[C@H](CO)[C@@H](O)[C@H](O)[C@@H]4O)[C@@H]3O)c2)cc1 [Compound 15, 4-[3-[(2R,3S,4S,5S,6R)-3,5-Dihydroxy-6-(hydroxymethyl)-4-[[(2R,3S,4R,5S,6R)-3,4,5-trihydroxy-6-(hydroxymethyl)tetrahydropyran-2-yl]methyl]tetrahydropyran-2-yl]oxy-4-methyl-phenyl]-N-methyl-benzamide]
pKd: 7.72

CNC(=O)Cc1cccc(-c2cccc(O[C@H]3O[C@H](CO)[C@@H](O)[C@H](C[C@H]4O[C@H](CO)[C@@H](O)[C@H](O)[C@@H]4O)[C@@H]3O)c2)c1 [Compound 10, 2-[3-[3-[(2R,3S,4S,5S,6R)-3,5-Dihydroxy-6-(hydroxymethyl)-4-[[(2R,3S,4R,5S,6R)-3,4,5-trihydroxy-6-(hydroxymethyl)tetrahydropyran-2-yl]methyl]tetrahydropyran-2-yl]oxyphenyl]phenyl]-N-methyl-acetamide]
pKd: 7.30

O=c1[nH]cc(-c2ccc(O[C@H]3O[C@H](CO)[C@@H](O)[C@H](C[C@H]4O[C@H](CO)[C@@H](O)[C@H](O)[C@@H]4O)[C@@H]3O)cc2)c(=O)[nH]1 [Compound 11, 5-[4-[(2R,3S,4S,5S,6R)-3,5-Dihydroxy-6-(hydroxymethyl)-4-[[(2R,3S,4R,5S,6R)-3,4,5-trihydroxy-6-(hydroxymethyl)tetrahydropyran-2-yl]methyl]tetrahydropyran-2-yl]oxyphenyl]-1H-pyrimidine-2,4-dione]
pKd: 7.01

From patent US20140107049A1, “MANNOSE DERIVATIVES FOR TREATING BACTERIAL INFECTIONS” (priority 2012, published 2014)
